“Also recorded” adds a separate entry of the source.
Key:
[1] = tested on: SHP promoter; test: SHP promoter-luciferase assay in HEK-293 cells; assay type: cell-based; settings: transfected with FXR and ER-β
Protocol: FIG. 12 depicts the effect of ER-β ligand on PPAR-γ function through ligand binding domain (LBD). (A). HEK-293 cells were transfected with 0.25 μg PPRE-LUC, 5 ng CMV-renilla LUC and the indicated receptors (PPAR-γ and ER-β for the left panel and PPAR-α and ER-β for the right panel). The cells were treated 24 hrs after transfection with the indicated ligands and harvested 48 hrs after transfection and firefly luciferase activity was measured and normalized to renilla luciferase. (B). H475 in ER-β LBD is important for its function. H475 in ER-β LBD was mutated to alanine (A) using a site directed mutagenesis kit. Transactivation assay was performed as described in panel A in HEK-293 cells with a titration of ER-β ligands in wild type (WT) or ER-β H475A. (C). […] HEK-293 cells were transfected with 0.25 μg PPRE-LUC, 5 ng CMV-renilla LUC and 50 ng of the indicated receptors (PPAR-γ or PPAR-γ and wild type ER-β or PPAR-γ and ER-β H475A). The cells were treated 24 hrs after transfection with the indicated ligands and harvested 48 hrs after transfection and firefly luciferase activity was measured and normalized to renilla luciferase. (D). […] HepG2 cells were transfected with 0.25 μg PPRE-LUC, 5 ng CMV-renilla LUC, 0.5 μg PGC-1 or vector backbone and 100 ng of the indicated receptors (PPAR-γ or PPAR-γ and wild type ER-β or PPAR-γ and ER-β H475A for top panels and PPAR-α or PPAR-α and ER-β for bottom panel). The cells were treated 24 hrs after transfection with the indicated ligands and harvested 48 hrs after transfection and firefly luciferase activity was measured and normalized to renilla luciferase. (E). SHP-1 is an ER-β specific target gene. HEK-293 cells were transfected with 0.25 μg SHP-LUC, 5 ng CMV-renilla LUC and 50 ng of the indicated receptors (FXR and ER-α for the left panel and FXR and ER-β for the right panel). The cells were treated 24 hrs after transfection with the indicated ligands and harvested 48 hrs after transfection and firefly luciferase activity was measured and normalized to renilla luciferase. PPAR—peroxisome proliferator and activated receptor; ER—estrogen receptor; H—histidine; A—alanine; RLU—relative luciferase units; Tro—troglitazone; PGC-1—PPAR-γ coactivator; SHP—small heterodimer partner; FXR—farsenoid X receptor.
Human estrogen receptors (ER-α and ER-β) were cloned from prostate cDNA into a pCR3.1 plasmid vector backbone. PGC-1 was cloned into mammalian two hybrid vector pACT. ER-β H475 was mutated to alanine using site-directed mutagenesis. Sequencing was performed to determine the absence of any non specific mutations. SHP promoter (−572 to +10) (26) was cloned into pGL3 basic LUC reporter vector and human FXR was cloned into pCR3.1. […]

[2] = target: ER-β (Rattus norvegicus (Rat), UniProt Q62986); test: Transient transactivation assay in HEK-293 cells, ER-β and ERE-LUC; assay type: cell-based; settings: for Function on ER-β in transactivation: HEK-293 cells
Protocol: Human estrogen receptors (ER-α and ER-β) were cloned from prostate cDNA into a pCR3.1 plasmid vector backbone. PGC-1 was cloned into mammalian two hybrid vector pACT. ER-β H475 was mutated to alanine using site-directed mutagenesis. Sequencing was performed to determine the absence of any non specific mutations. […] HEK-293 cells were plated at 100,000 cells per well of a 24 well plate in […] (DMEM)+5% charcoal-stripped fetal bovine serum (csFBS). […] Luciferase assays were performed 48 hrs after transfection.
The cells were treated with varying concentrations of the ligands and their EC50 values were determined.

[3] = tested on: receptors for progesterone, mineralocorticoids, androgens, glucocorticoids, FXR, PXR, LXR, RXR, PPAR-α, PPAR-γ and ERR-α, ERR-β and ERR-γ; test: Transactivation assays for cross reactivity with 13 other NHR; assay type: cell-based; settings: concentrations as high as 10 μM; data not shown
[4] = target: ER-α (Rattus norvegicus (Rat), UniProt P06211); assay type: cell-based; settings: for Estradiol activity at 100 nM of NRBA, ER-α: 100 nM compound compared to 1 nM estradiol
In short: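 COS or 293 cells in phenol red-free medium with charcoal-stripped FBS, transfected with a 2×ERE firefly luciferase reporter, CMV-Renilla control and rat-cloned receptor. Compounds, estrogen or DHT added 24 h post transfection, alone or combined; firefly and Renilla luciferase read 48 h after transfection.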

[5] = target: ERβ ligand binding domain (Homo sapiens, UniProt Q92731); test: Competitive [3H]-estradiol binding assay, ER-β (Example 21)
Protocol: ER binding affinity was determined via one of the following methods:
Briefly, the incubation mixture was filtered through a high affinity protein binding filter, and washed several times to remove any unbound radioactivity. The filter plate was air dried and sealed on the bottom.
Nonspecific binding was subtracted from total binding to yield specific binding.

[6] = target: ER-α ligand binding domain (LBD) (Homo sapiens (Human), UniProt P03372); test: Ligand binding assay of 14m and 12u, ER-α (Example 22A)
[7] = tested on: PPAR-α; test: PPAR-α transactivation (PPRE-LUC) in HEK-293 cells co-transfected with ER-β; assay type: cell-based
Protocol: FIG. 12 depicts the effect of ER-β ligand on PPAR-γ function through ligand binding domain (LBD). (A). HEK-293 cells were transfected with 0.25 μg PPRE-LUC, 5 ng CMV-renilla LUC and the indicated receptors (PPAR-γ and ER-β for the left panel and PPAR-α and ER-β for the right panel). The cells were treated 24 hrs after transfection with the indicated ligands and harvested 48 hrs after transfection and firefly luciferase activity was measured and normalized to renilla luciferase. (B). H475 in ER-β LBD is important for its function. H475 in ER-β LBD was mutated to alanine (A) using a site directed mutagenesis kit. Transactivation assay was performed as described in panel A in HEK-293 cells with a titration of ER-β ligands in wild type (WT) or ER-β H475A. (C). […] The cells were treated 24 hrs after transfection with the indicated ligands and harvested 48 hrs after transfection and firefly luciferase activity was measured and normalized to renilla luciferase. […] The cells were treated 24 hrs after transfection with the indicated ligands and harvested 48 hrs after transfection and firefly luciferase activity was measured and normalized to renilla luciferase. […] The cells were treated 24 hrs after transfection with the indicated ligands and harvested 48 hrs after transfection and firefly luciferase activity was measured and normalized to renilla luciferase. […]

[8] = tested on: high fat diet (HFD) induced obesity model; test: High fat diet induced obesity, prevention studies; assay type: in vivo, C57BL6 male mice; settings: for Prevention of the increase in body fat (MRI) / Prevention of body weight increase caused by the high fat diet: Study 2, 30 mg/kg/day s.c.; for Lean mass (MRI): Study 2, high fat diet; for Fat mass (MRI): Study 2, versus high fat diet and vehicle
Protocol: The mice were treated for 12 weeks.

[9] = high fat diet, 30 mg/kg/day s.c., 12 weeks
[10] = high fat diet, 30 mg/kg/day s.c.

Sequence of ERβ ligand binding domain (Q92731 whole entry, looked up, the tested form may be a part): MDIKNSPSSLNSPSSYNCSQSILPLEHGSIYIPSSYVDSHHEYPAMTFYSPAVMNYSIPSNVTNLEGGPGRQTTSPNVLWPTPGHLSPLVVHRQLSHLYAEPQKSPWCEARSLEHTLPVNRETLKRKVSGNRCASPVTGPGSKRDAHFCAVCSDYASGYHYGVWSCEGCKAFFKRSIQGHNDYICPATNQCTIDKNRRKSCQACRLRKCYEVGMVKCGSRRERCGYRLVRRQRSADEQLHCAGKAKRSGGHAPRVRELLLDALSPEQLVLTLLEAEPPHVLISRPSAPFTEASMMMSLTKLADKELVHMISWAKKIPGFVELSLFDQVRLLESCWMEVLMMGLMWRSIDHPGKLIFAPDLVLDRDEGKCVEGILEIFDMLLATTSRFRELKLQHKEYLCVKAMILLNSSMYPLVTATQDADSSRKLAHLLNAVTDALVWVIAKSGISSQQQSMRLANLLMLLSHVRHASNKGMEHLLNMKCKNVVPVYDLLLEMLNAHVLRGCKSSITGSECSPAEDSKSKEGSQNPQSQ
Sequence of ER-α ligand binding domain (LBD) (P03372 whole entry, looked up, species assumed, the tested form may be a part): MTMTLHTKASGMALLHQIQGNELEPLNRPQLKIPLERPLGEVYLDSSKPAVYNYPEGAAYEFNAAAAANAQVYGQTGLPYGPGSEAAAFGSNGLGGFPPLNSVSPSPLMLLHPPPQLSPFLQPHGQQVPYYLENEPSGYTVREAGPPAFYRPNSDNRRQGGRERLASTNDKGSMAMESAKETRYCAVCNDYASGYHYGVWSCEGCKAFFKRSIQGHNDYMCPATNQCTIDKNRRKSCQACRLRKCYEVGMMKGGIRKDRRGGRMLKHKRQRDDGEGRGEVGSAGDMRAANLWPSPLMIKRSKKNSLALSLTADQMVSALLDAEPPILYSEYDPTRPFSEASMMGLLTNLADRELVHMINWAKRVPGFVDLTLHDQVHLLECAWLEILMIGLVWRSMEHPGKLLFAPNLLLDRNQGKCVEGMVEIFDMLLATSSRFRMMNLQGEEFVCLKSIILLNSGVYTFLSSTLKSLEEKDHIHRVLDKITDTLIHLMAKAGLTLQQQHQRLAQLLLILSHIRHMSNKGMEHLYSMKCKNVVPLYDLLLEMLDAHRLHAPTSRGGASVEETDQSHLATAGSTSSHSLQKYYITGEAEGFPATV

Row | SMILES | SHP promoter activity [1] | EC50 [2] | Function on ER-β in transactivation [2] | Cross reactivity with 13 other NHR [3] | Estradiol activity at 100 nM of NRBA, ER-α [4] | Ki [6] | WY14643 induced PPAR-α transactivation [7] | Prevention of the increase in body fat (MRI) [8] | Prevention of body weight increase caused by the high fat diet ([8]; 12 weeks) | Lean mass (MRI) [8] | Fat mass (MRI) [8] | Body weight versus normal diet controls [8, 9] | Gastrocnemius muscle weight ([8]; high fat diet, 12 weeks) | Serum testosterone levels ([8]; high fat diet, 12 weeks) | Testes weights ([8]; high fat diet, 12 weeks) | White adipose tissue (WAT) weight ([8]; high fat diet, 12 weeks) | also measured
1 | O=c1c2c(O)cc(O)cc2c(Br)cn1-c1ccc(O)cc1 [12u, 4-bromo-6,8-dihydroxy-2-(4-hydroxyphenyl)isoquinolin-1(2H)-one] | neither of the ligands activated SHP | < 10 nM | agonists | did not cross react | 62% | 40 nM | did not affect | more than 50% | more than 50% | increased muscle mass; also recorded: increased the lean mass | reduced fat mass; also recorded: significant reduction in fat mass | statistically indistinguishable from the normal diet controls | increased gastrocnemius muscle weight | did not affect the serum testosterone levels; also recorded: not altered | not altered | prevented the increase in the WAT weight; also recorded: decreased WAT weight | Classification as ER-α agonist [4]: ER-α agonists; inhibition at 0.1 µM ([5]; read-out: Percent Inhibition of [3H]-Estradiol Binding to ER-β): 96.7%
2 | N#Cc1cn(-c2ccc(O)cc2)c(=O)c2c(O)cc(O)cc12 [14m, 6,8-dihydroxy-2-(4-hydroxyphenyl)-1-oxo-1,2-dihydroisoquinoline-4-carbonitrile] | neither of the ligands activated SHP | < 10 nM | agonists | did not cross react | 49% | 94 nM | did not affect | more than 50% | more than 50% | increased muscle mass; also recorded: increased the lean mass | reduced fat mass; also recorded: significant reduction in fat mass | statistically indistinguishable from control mice; also recorded: statistically indistinguishable from the normal diet controls | increased gastrocnemius muscle weight | did not affect the serum testosterone levels; also recorded: not altered | not altered | prevented the increase in the WAT weight; also recorded: significantly reduced; also recorded: decreased WAT weight | Ki ([5]; read-out: ER-β binding constant (Ki)): 7 nM; Accumulation of fat in liver (oil red staining) ([8]; high fat diet): attenuated the accumulation of lipid droplets in the liver; also recorded: completely prevented the accumulation of fat in the liver; Serum cholesterol increase ([8]; high fat diet): significantly reversed; Serum leptin increase ([8]; high fat diet): significantly reversed; Serum macrophage inflammatory protein-1β (MIP-1β) ([8]; high fat diet): undetectable levels; Bone mineral content (BMC, DEXA) [8, 10]: prevented the loss in BMC; Feed consumption / total caloric intake [8, 10]: did not affect total caloric intake; Body fat (DEXA) [8, 9]: suppressing fat mass formation; Reduction in body weight compared to high fat diet and vehicle [8, 9]: greater than 85%; Weight gained more than normal diet-fed controls [8, 9]: 5%; Blood glucose levels in glucose tolerance test ([8]; high fat diet, 150 mg glucose orally): not statistically different from the normal diet controls; Serum follicle stimulating hormone (FSH) levels ([8]; high fat diet, 12 weeks): did not affect serum testosterone and follicle stimulating hormone (FSH) levels

From patent US9604931B2, “Nuclear receptor binding agents” (GTx, Inc., priority 2007, dated 2017)
